Consider five compounds from US20070287848A1, “Silicon Compound Containi-Electron Conjugated-System Molecule and Process for Producing the Same” (priority 2004, published 2007).

One data set is described as follows: Solubility in THF. The data set is classed as physicochemical. To be noted: in 1 ml of THF.
The next data set is described as follows: Solubility in toluene. In kind it is physicochemical. To be noted: in 1 ml of toluene; for solubility relative to that of Th4-SiCl3: ratio to Th4-SiCl3.

Take `CCCCCCCCCCCCCCCCCCc1ccc(-c2ccc(-c3ccc([Si](Cl)(Cl)Cl)cc3)cc2)cc1` [C18-P3-SiCl3]: in the data set “Solubility in THF” (ratio to P3-SiCl3), the “solubility relative to that of P3-SiCl3” value is reported as “about 2.8 times”.

Take `Cl[Si](Cl)(Cl)c1ccc(-c2ccc(-c3ccccc3)cc2)cc1` [P3-SiCl3, reference compound]: in the data set “Solubility in THF”, the solubility entry is listed as “about 2.0 mg/ml”.

In the case of `Cl[Si](Cl)(Cl)c1ccc(-c2ccc(-c3ccc(-c4cccs4)s3)s2)s1` [Th4-SiCl3, reference compound], the solubility entry in the data set “Solubility in toluene” was “about 1.0 mg/ml”. As to `CCCCCCCCCCCCCCCCCCc1ccc(-c2ccc(-c3ccc(-c4ccc([Si](OC)(OC)OC)s4)s3)s2)s1` [C18-Th4-Si(OCH3)3], in the data set “Solubility in toluene”, the “solubility relative to that of Th4-SiCl3” value was “about 9.5 times”.

With `CCCCCCCCCCCCCCCCCCc1ccc(-c2ccc(-c3ccc(-c4ccc([Si](OCC)(OCC)OCC)s4)s3)s2)s1` [C18-Th4-Si(OC2H5)3], in the data set “Solubility in toluene”, the “solubility relative to that of Th4-SiCl3” value is given as “about 10 times”.
